According to publication PMC4038613, “A New Class of Multimerization Selective Inhibitors of HIV-1 Integrase” (PLoS Pathogens, 2014):
Like-named read-outs stand apart in the source and are kept apart here.

Assays:
[1] = tested on: HIV-1 virions in HEK293T cells; experiment: Viral entry assay; type: cell-based; details: virions produced with 1 µM KF116
[2] = tested on: VSV-G pseudotyped HIV-1-Luc in PSIP1 KO HEK293T cells; experiment: microbe, parasite or virus in culture; type: cell-based; details: for EC50: Human immunodeficiency virus 1, HEK-293T
[3] = in vitro; type: cell-based
Procedure: The cytotoxcity assays were performed as described previously. The fitted dose-response curves were generated to calculate EC50 or CC50 using Origin software (OriginLab, Inc.).

[4] = target: T1, IN (Human immunodeficiency virus type 1 group M subtype B, UniProt P12497); experiment: DLS assay of recombinant IN multimerization; type: biochemical, HIV-1
T1 construct: DLS analysis of KF116-induced multimerization of recombinant IN
Procedure: (A) DLS analysis of KF116-induced multimerization of recombinant IN. […] The indicated volumes of cross-linked reaction products were resolved by SDS-PAGE and immunoblotted with HIV-1 IN antibody. The bands corresponding to IN “monomer”, “dimer”, and “higher order oligomers” are indicated.
DLS signals were recorded at room temperature using a Malvern Nano series zetasizer instrument.

[5] = tested on: HIV-1 capsid (p24); experiment: Sucrose density gradient fractionation of detergent-lysed virions; type: cell-based; details: 1 µM KF116, fractions 18–20
Procedure: Cell-free virions were harvested, detergent-lysed, and separated on 30–70% linear sucrose density gradients. Twenty-one 0.5 ml fractions were collected from the top of the gradient and subjected to SDS-PAGE and immunoblotted with HIV-1 Gag antisera to monitor the distribution of HIV-1 capsid. […] (D) Quantitation of HIV-1 capsid (p24) signal intensity from (B) as measured by ImageJ software. Graph represents the relative distribution of HIV-1 capsid (p24) in each of the sucrose density gradient fractions.
Sucrose density gradient fractionation was carried out as described previously [74] with some modifications. Briefly, HIV-1 virions were produced in the presence of the inhibitor or diluent control (DMSO) and cell-free virions were concentrated over a 25% sucrose cushion by ultra-centrifugation at 28,000 rpm for 2 h at 4°C in SW41 rotor (Beckman). Pelleted virions were resuspended in 300 µl STE buffer (10 mM Tris pH 7.5, 100 mM NaCl, 1 mM EDTA), lysed with 0.5% Triton X100 for 2 minutes at room temperature. Lysed virions were loaded on 30–70% linear sucrose density gradients in STE buffer, and ultra-centrifuged at 28,500 rpm for 16 h at 4°C in SW41 rotor (Beckman). Twenty-one 0.5-ml fractions were collected from the top of the gradient and subjected to SDS-PAGE and immunoblotted with HIV-1 Gag antisera to monitor the distribution of HIV-1 capsid.

[6] = tested on: HIV-1MJ4; experiment: Antiviral assay against HIV-1 clade C (pMJ4); type: cell-based; details: Human immunodeficiency virus 1, IN residue Ala125, read-out: IC50 for inhibition of HIV-1MJ4 replication
[7] = tested on: VSV-G pseudotyped HIV-1-Luc in wild type HEK293T cells; experiment: microbe, parasite or virus in culture; type: cell-based; details: Human immunodeficiency virus 1, HEK-293T
[8] = tested on: A128T IN HIV-1NL4-3; experiment: A128T HIV-1 infectivity in TZM-bl cells; type: cell-based; details: particles produced in presence of inhibitor
[9] = tested on: VSV-G pseudotyped HIV-1-Luc; type: cell-based
[10] = tested on: HIV-1; experiment: Antiviral assay, early stage (inhibitor added to target cells); type: cell-based; details: called IC50
[11] = target: IN-LEDGF/p75 (Human immunodeficiency virus type 1 group M subtype B, UniProt P12497); experiment: HTRF-based IN-LEDGF/p75 binding assay; design: species or system HIV-1
Procedure: HTRF-based IN multimerization and IN-LEDGF/p75 binding assays were carried out as described previously [33].

[12] = tested on: virion-associated RT; experiment: Virion-associated Reverse Transcriptase (RT) assay; type: biochemical, HIV-1; details: virions produced with 1 µM KF116
Procedure: Virions generated in the presence of inhibitor or diluent control (DMSO) was concentrated over 25% sucrose cushion. The virion-associated RT activity assay was performed as described previously, [81] with minor changes. Briefly, equivalent amounts of concentrated virions (based on HIV-1 p24 ELISA) were incubated with RT buffer, containing 50 mM Tris (pH 7.8), 75 mM KCL, 5 mM MgCl2, 2 mM DTT, 0.05% Nonidet P-40 (v/v), 5 µg/ml Poly r(A). Poly d(T)12–18, and 10 µCi of α-^32P dTTP, in 35 µl final volume. The reactions were incubated at room temperature for 3 h. Duplicate 10 µl of the final reactions were blotted onto a 96-well DEAE Filtermat paper (Wallac-Perkin Elmer), dried, washed and processed as described previously.
The initiation of reverse transcription from total viral RNA was measured using an in vitro HIV-1 reverse transcription reaction, which extends tRNA^Lys3 primer on viral RNA template by +6-nt. The final reaction products were resolved by PAGE and detected by phosphorimager analysis. (Upper panel) A representative image of the 6-nt extension products is shown. (Lower panel) The bar graph represents quantification of bands from the upper panel using ImageJ software. The signal intensity obtained for the non-treated (DMSO) sample was set to 100%. […] Equivalent amounts of concentrated virions, based on HIV-1 p24 ELISA, were analyzed for virion-associated RT activity. […]

Structure (SMILES): Cc1nc(-c2nc3ccc(Cl)cc3[nH]2)c(C)c(-c2ccccc2)c1C(OC(C)(C)C)C(=O)O (centres unmarked) [KF116]
- effect on viral entry (incoming genomic RNA in target cells) [1]: does not significantly compromise viral entry
- effect of complete loss of LEDGF/p75 protein in virus-producer cells on IC50 values [2]: did not alter
- EC50 ([2]; read-out: EC50, KO producer cells): ~0.075 µM
- EC50 ([2]; read-out: EC50, KO target cells): ~1.4 µM
- CC50 [3]: > 100 µM
- DLS particle size diameter, 30 min ([4]; 1 µM KF116, 200 nM IN): 1106 nm
- DLS particle size diameter, 120 min ([4]; 1 µM KF116, 200 nM IN): 1281 nm
- DLS particle size diameter, immediately upon addition (2 minutes) ([4]; 1 µM KF116, 200 nM IN): 142 nm
- DLS signal of inhibitor alone (self-aggregation in aqueous solution) ([4]; only KF116, no IN): no signal was recorded
- reduction of HIV-1 capsid (p24) in higher density fractions [5]: > 95%
- IC50 [6]: 0.127 ± 0.01 µM
- EC50 ([7]; read-out: EC50, WT producer cells): ~0.069 µM
- EC50 ([7]; read-out: EC50, WT target cells): > 50 µM
- A128T IN HIV-1NL4-3 replication in infected cells [8]: effectively impaired
- effect on replication intermediates in target cells of virions produced in presence of inhibitor [9]: sharply reduced levels of early and late RT products
- effect on replication intermediates when inhibitor added to target cells [9]: had no effects on reverse transcription, integration, levels of 2-LTRs, or viral expression
- EC50 ([10]; Human immunodeficiency virus 1, read-out: EC50, Early Stage, target cells, inhibitor added to target cells, untreated virions): 50.9 ± 4.3 µM
- EC50 ([10]; read-out: EC50, Early Stage, target cells, inhibitor added to target cells, untreated virions): ~50 µM
- IC50 [11]: 5.03 ± 0.36 µM
- effect on virion-associated RT activities [12]: no effects
